24 compounds from patent US12606564B2, “Adenosine receptor antagonist compounds” (ILDONG PHARMACEUTICAL CO., LTD., priority 2019, dated 2026) can be followed below.

Assay [1] addresses T1, Human recombinant adenosine A1 receptors (Homo sapiens, UniProt P30542).
T1 construct: expressed in transfected cells; host or cells: CHO-K1, membrane preparation
T1 sequence (P30542 1-326): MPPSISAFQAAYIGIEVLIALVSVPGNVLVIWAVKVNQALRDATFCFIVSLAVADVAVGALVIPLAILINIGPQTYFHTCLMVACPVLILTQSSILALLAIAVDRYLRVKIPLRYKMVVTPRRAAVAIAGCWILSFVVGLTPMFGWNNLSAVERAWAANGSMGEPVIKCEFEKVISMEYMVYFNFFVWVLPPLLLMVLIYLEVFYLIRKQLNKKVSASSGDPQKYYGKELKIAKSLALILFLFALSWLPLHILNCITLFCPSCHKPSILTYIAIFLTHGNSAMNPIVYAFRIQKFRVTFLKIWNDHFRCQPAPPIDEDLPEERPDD
As to the kind of experiment: Human adenosine A1 receptor binding assay with [3H] DPCPX (purine compounds, Example 2.2). As to conditions: membranes of CHO-K1 cells. How it is done: Test compound is weighed, dissolved in DMSO to make a stock solution of 10 mM, diluted with DMSO to prepare working solutions, then 100-fold diluted to the indicated concentrations. Human recombinant adenosine A1 receptors expressed in CHO-K1 cells were used to prepare membranes in incubation buffer (20 mM HEPES (4-(2-hydroxyethyl)-1-piperazineethanesulfonic acid) pH 7.4, 10 mM MgCl2, 100 mM NaCl). Test compound or vehicle (2.2 μL) was added in 200 μL of membranes and incubated with 20 μL of 1 nM [^3H] DPCPX (8-cyclopentyl-1,3-dipropylxanthine) for 90 minutes at 25° C. Non-specific binding was estimated in the presence of 100 μM R(−)-PIA ((R)—N-(1-methyl-2-phenylethyl)adenosine). The incubation was stopped by vacuum filtration onto 0.3% PEI (polyethylenimine) presoaked GF/B filters using a harvester followed by four washes with ice-cold 50 mM Tris-HCl, pH 7.4, and the radioactivity on GF/B filtermats counted in a scintillation counter (PerkinElmer Topcount™) to determine [^3H] DPCPX specifically bound. Final concentration of vehicle DMSO is 1%. Data is fitted using the non-linear curve fitting routines in Meth-IQ software (ID Business Solutions Ltd., UK).
The binding affinity of selected compounds against A1 receptor was assessed using the binding assay described above.

Assay [2] has as its target human recombinant A2AR (Homo sapiens, UniProt P29274). As to the kind of experiment: Human A2A functional cAMP assay in human recombinant A2AR stable cell line (HEK293). (cAMP levels reflect the balance of adenylyl cyclase and phosphodiesterase activity.)
Method: cAMP assay was performed on human recombinant A2AR stable cell line (HEK293). The cells were cultured at 37° C. and 5% CO2 with culture medium (90% DMEM+10% FBS+500 μg/mL G418). […] Then, 100 nL compounds were transferred by Echo machine with 12 doses respectively. Cells were collected with stimulation buffer (1×HBSS with 5 mM HEPES+0.05 mM IBMX+0.1% BSA) and plated the cells at the density of 5,000 cells/well, centrifuged at 600 rpm for 3 min and then incubation with compounds at room temperature for 60 min. After that, 5 μL 4× Eu-cAMP tracer solution and 5 μL 4× ULight™-anti-cAMP solution were added into the cells, centrifuged at 600 rpm for 3 min and incubated for 60 min. cAMP signal was detected with Envision. GraphPad Prism (version 6.0) was used for the data analysis.
The A2A receptor antagonistic activity of selected compounds was assessed using the cAMP assay described above.
Assay [3] concerns the target T2, Human recombinant adenosine A2A receptor (Homo sapiens, UniProt P29274). The assay is described as follows: A2A receptor (A2AR) SPA binding assay with [3H] SCH58261. Details: expressed in transfected cells; host or cells: HEK293 (HKE293 [sic]), membrane preparation. As to conditions: [3H] SCH58261 radioligand. How it is done:
Test compound is weighed, then dissolved in 100% DMSO to prepare 20 mM stock solution. Dilute the stock solution with DMSO into 100× final concentration, and then use this DMSO solution to perform 3-fold serial dilution for totally 12 concentrations with DMSO. 10-fold diluting the serial dilutions with assay buffer to the working concentrations. […] SCH58261 as the radioligand. The assay buffer is prepared with DPBS containing 10 mM MgCl2. 5 μL of compound working solutions (a total of 12 concentrations starting from 1 or 3 μM, 1/3 dilution) is transferred to the wells by the 12-channel pipette. A2AR membrane is pre-incubated with adenosine deaminase for 15 min at room temperature. Then SPA beads are added and the membrane-bead suspension mixture is incubated for 30 min at room temperature with the rotary mixer. […] SCH58261 radioligand solution. Final concentration of DMSO in the A2AR SPA binding assay is 1%. Sealing the plates and incubate for 1 hr at 27° C. with vigorous mixing on a plate shaker. After 1 hr, centrifuge the plate (1000 rpm, 1 min), and settle the plate for 5 min prior to counting. The signal of radiation is measured by the Microbeta2. […] Non-specific binding refers to the wells containing reaction system with the presence of 100 μM SCH58261. The dose-response curve is fitted with GraphPad Prism 5 and IC50 values are calculated by log(inhibitor) vs. response—Variable slope program with the following formula: Y=Bottom+(Top−Bottom)/(1+10^[…] ligand concentration used in assay/radio ligand Kd)
The binding affinity of selected compounds against A2A receptor was assessed using the SPA binding assay described above.

Assay [4] addresses T2, Human recombinant adenosine A2A receptor. As to the kind of experiment: Human adenosine A2A receptor binding assay with [3H] CGS-21680 (Example 4.2). Particulars: summary of Table 5, binding assays of Examples 4.1 and 4.2.
Method: Test compound is weighed, dissolved in DMSO to make a stock solution of 10 mM, diluted with DMSO to prepare working solutions, then 100-fold diluted to the indicated concentrations. Human recombinant adenosine A2A receptors expressed in HEK-293 cells were used to prepare membranes in incubation buffer (50 mM Tris-HCl, pH 7.4, 10 mM MgCl2, 1 mM EDTA, 2 U/ml Adenosine Deaminase). Test compound or vehicle (2.2 μL) was added in 200 μL of membranes and incubated with 20 μL of 50 nM [^3H] […] Non-specific binding was estimated in the presence of 50 μM NECA (5′-N-ethylcarboxamidoadenosine). The incubation was stopped by vacuum filtration onto 0.3% PEI (polyethylenimine) presoaked GF/B filters using a harvester followed by four washes with ice-cold 50 mM Tris-HCl, pH 7.4, and the radioactivity on GF/B filtermats counted in a scintillation counter (PerkinElmer Topcount™) to determine [^3H] […] Final concentration of vehicle DMSO is 1%.

A value given as a limit tells only on which side of the number the result lay.

T2 sequence (P29274 whole entry): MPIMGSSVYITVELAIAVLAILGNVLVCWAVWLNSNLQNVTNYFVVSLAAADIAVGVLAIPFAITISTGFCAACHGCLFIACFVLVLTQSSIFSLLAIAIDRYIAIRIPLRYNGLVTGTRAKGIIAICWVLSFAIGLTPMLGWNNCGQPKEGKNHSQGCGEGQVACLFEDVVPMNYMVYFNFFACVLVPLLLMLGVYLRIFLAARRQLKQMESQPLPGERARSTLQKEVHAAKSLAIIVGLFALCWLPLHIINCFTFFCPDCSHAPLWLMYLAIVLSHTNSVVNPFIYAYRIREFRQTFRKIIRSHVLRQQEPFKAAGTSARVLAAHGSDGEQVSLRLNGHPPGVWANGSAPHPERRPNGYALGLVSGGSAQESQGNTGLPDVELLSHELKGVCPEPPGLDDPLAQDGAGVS
human recombinant A2AR, sequence (P29274 whole entry): as above

For orientation: Ki means a dissociation constant, usually derived from enzyme kinetics or from competition with a known ligand. One may read the IC50 as the concentration needed to halve the response being measured. `N#Cc1cccc(-c2nc(N)nc3c2ncn3Cc2ccc(N)cc2)c1` [Compound 101, 3-(2-amino-9-(4-aminobenzyl)-9H-purin-6-yl) benzonitrile]: the inhibition constant (Ki) in assay [1] is > 1000 nM; in assay [3], 10 to 100 nM. Besides, in assay [2], the 50% inhibitory concentration (IC50) was > 1000 nM.
Turning to `Cc1c(C#N)cccc1-c1nc(N)nc2c1ncn2Cc1ccc(N)cc1` [Compound 105, 3-(2-amino-9-(4-aminobenzyl)-9H-purin-6-yl)-2-methylbenzonitrile], the inhibitory constant (Ki) in assay [3] was > 500 nM.
Take `N#Cc1ccnc(-c2nc(N)nc3c2ncn3Cc2c(F)cc(N)cc2F)c1` [Compound 124, 2-[2-amino-9-[(4-amino-2,6-difluoro-phenyl)methyl]purin-6-yl]pyridine-4-carbonitrile]: the inhibition constant (Ki) in assay [1] is ≤ 300 nM; in assay [3] it was < 10 nM. Moreover, the IC50 in assay [2] is < 300 nM.
For `Cc1cc(Cn2cnc3c(-c4cccc(C#N)c4F)nc(N)nc32)ccc1N` [Compound 106, 3-(2-amino-9-(4-amino-3-methylbenzyl)-9H-purin-6-yl)-2-fluorobenzonitrile], the Ki was > 1000 nM in assay [1] and 10 to 100 nM in assay [3].
Turning to `Cc1cc(Cn2cnc3c(-c4cccc(C#N)c4)nc(N)nc32)ccc1N` [Compound 104, 3-(2-amino-9-(4-amino-3-methylbenzyl)-9H-purin-6-yl)benzonitrile], the inhibition constant Ki in assay [1] was > 1000 nM; in assay [3] it was < 10 nM. Moreover, the half-maximal inhibitory concentration (IC50) in assay [2] was < 300 nM.
Take `N#Cc1cccc(-c2nc(N)nc3c2ncn3Cc2c(F)cccc2F)c1` [Compound 112, 3-(2-amino-9-(2,6-difluorobenzyl)-9H-purin-6-yl) benzonitrile]: the Ki in assay [1] is ≤ 300 nM; in assay [3], < 10 nM. Besides, in assay [2], the IC50 is < 300 nM.
For the compound `Cc1cc(Cn2cnc3c(-c4cc(C#N)ccn4)nc(N)nc32)ccc1N` [Compound 128, 2-[2-amino-9-[(4-amino-3-methyl-phenyl)methyl]purin-6-yl]pyridine-4-carbonitrile], the Ki in assay [1] is 300 to 1000 nM; in assay [3], < 10 nM. The IC50 in assay [2] is 300 to 1000 nM.
Take `Cc1cc(Cn2ncc3c(-c4cccc(C#N)c4F)nc(N)nc32)ccc1N` [Compound 206, 3-(6-amino-1-(4-amino-3-methylbenzyl)-1H-pyrazolo[3,4-d]pyrimidin-4-yl)-2-fluorobenzonitrile]: in assay [4], the “activity as dual antagonists of both A2A and A1 receptors (in words)” value is “potent activity as dual antagonists”.
On to `Cc1c(C#N)cccc1-c1nc(N)nc2c1ncn2Cc1c(F)cccc1F` [Compound 114, 3-(2-amino-9-(2,6-difluorobenzyl)-9H-purin-6-yl)-2-methylbenzonitrile], for which the Ki in assay [1] is > 1000 nM; in assay [3] it was 10 to 100 nM.
On to `N#Cc1cccc(-c2nc(N)nc3c2ncn3Cc2c(F)cccc2F)c1F` [Compound 113, 3-(2-amino-9-(2,6-difluorobenzyl)-9H-purin-6-yl)-2-fluorobenzonitrile], for which the Ki in assay [1] was in the range of 300 to 1000 nM; in assay [3], 10 to 100 nM. In assay [2], the IC50 is 300 to 1000 nM.
As to `N#Cc1cccc(-c2nc(N)nc3c2ncn3Cc2c(F)cc(N)cc2F)c1` [Compound 107, 3-(2-amino-9-(4-amino-2,6-difluorobenzyl)-9H-purin-6-yl)benzonitrile], the Ki in assay [1] was ≤ 300 nM; in assay [3], < 10 nM. Further, in assay [2], the IC50 is < 300 nM.
On to `N#Cc1cc(-c2nc(N)nc3c2ncn3Cc2ccc(N)cc2)ccn1` [Compound 118, 4-[2-amino-9-[(4-aminophenyl)methyl]purin-6-yl]pyridine-2-carbonitrile], for which the inhibition constant (Ki) in assay [3] was > 500 nM.
For `N#Cc1ccnc(-c2nc(N)nc3c2ncn3Cc2c(F)cccc2F)c1` [Compound 132, 2-[2-amino-9-[(2,6-difluorophenyl)methyl]purin-6-yl]pyridine-4-carbonitrile], the results for the Ki in assay [1] and in assay [3] were ≤ 300 nM and < 10 nM, respectively. For the same compound, the IC50 in assay [2] is < 300 nM.
As to `N#Cc1cc(-c2nc(N)nc3c2ncn3Cc2c(F)cccc2F)ccn1` [Compound 134, 4-[2-amino-9-[(2,6-difluorophenyl)methyl]purin-6-yl]pyridine-2-carbonitrile], the Ki in assay [3] fell in the range of 10 to 100 nM.
`N#Cc1ccnc(-c2nc(N)nc3c2ncn3Cc2ccc(N)cc2F)c1` [Compound 120, 2-[2-amino-9-[(4-amino-2-fluoro-phenyl)methyl]purin-6-yl]pyridine-4-carbonitrile]: the inhibitory constant (Ki) was 300 to 1000 nM in assay [1] and < 10 nM in assay [3]. For the same compound, the 50% inhibitory concentration (IC50) in assay [2] was < 300 nM.
As for `N#Cc1cccc(-c2nc(N)nc3c2ncn3Cc2ccc(N)cc2F)c1` [Compound 109, 3-(2-amino-9-(4-amino-2-fluorobenzyl)-9H-purin-6-yl)benzonitrile], the results for the Ki in assay [1] and in assay [3] were 300 to 1000 nM and < 10 nM, respectively. Moreover, in assay [2], the 50% inhibitory concentration (IC50) is < 300 nM.
As to `N#Cc1cccc(-c2nc(N)nc3c2ncn3Cc2ccc(N)cc2)c1F` [Compound 102, 3-(2-amino-9-(4-aminobenzyl)-9H-purin-6-yl)-2-fluorobenzonitrile], the Ki in assay [3] was in the range of 100 to 500 nM.
For `N#Cc1cccc(-c2nc(N)nc3c2ncn3Cc2ccc(N)cc2F)c1F` [Compound 103, 3-(2-amino-9-(4-amino-2-fluorobenzyl)-9H-purin-6-yl)-2-fluorobenzonitrile], the Ki in assay [1] is > 1000 nM; in assay [3], 10 to 100 nM. For the same compound, in assay [2], the IC50 is > 1000 nM.
Regarding `N#Cc1cccc(-c2nc(N)nc3c2ncn3Cc2ccc(N)cc2F)n1` [Compound 119, 6-[2-amino-9-[(4-amino-2-fluoro-phenyl)methyl]purin-6-yl]pyridine-2-carbonitrile], in assay [3], the Ki is 100 to 500 nM.
On to `N#Cc1cccc(-c2nc(N)nc3c2ncn3Cc2ccc(N)c(C(F)(F)F)c2)c1F` [Compound 111, 3-[2-amino-9-[[4-amino-3-(trifluoromethyl)phenyl]methyl]purin-6-yl]2-fluorobenzonitrile], for which the figures for the inhibition constant Ki in assay [1] and in assay [3] were > 1000 nM and 10 to 100 nM, respectively. The IC50 in assay [2] is > 1000 nM.
For `N#Cc1cccc(-c2nc(N)nc3c2ncn3Cc2c(F)cc(N)cc2F)c1F` [Compound 108, 3-(2-amino-9-(4-amino-2,6-difluorobenzyl)-9H-purin-6-yl)-2-fluorobenzonitrile], the Ki in assay [1] lay within 300 to 1000 nM; in assay [3] it was 10 to 100 nM. Further, in assay [2], the concentration for half-maximal inhibition (IC50) was 300 to 1000 nM.
As for `N#Cc1cncc(-c2nc(N)nc3c2ncn3Cc2c(F)cc(N)cc2F)c1` [Compound 125, 5-[2-amino-9-[(4-amino-2,6-difluoro-phenyl)methyl]purin-6-yl]pyridine-3-carbonitrile], the inhibitory constant (Ki) in assay [3] fell in the range of 100 to 500 nM.
Turning to `N#Cc1cc(-c2nc(N)nc3c2ncn3Cc2c(F)cc(N)cc2F)ccn1` [Compound 126, 4-[2-amino-9-[(4-amino-2,6-difluoro-phenyl)methyl]purin-6-yl]pyridine-2-carbonitrile], the inhibition constant Ki in assay [3] lay in the range of 10 to 100 nM.
For `N#Cc1cccc(-c2nc(N)nc3c2ncn3Cc2ccc(N)c(C(F)(F)F)c2)c1` [Compound 110, 3-[2-amino-9-[[4-amino-3-(trifluoromethyl)phenyl]methyl]purin-6-yl]benzonitrile], the Ki is 300 to 1000 nM in assay [1] and < 10 nM in assay [3]. Also, the IC50 in assay [2] was < 300 nM.
